Measured values: patent US20110059977A1 (priority 2006, published 2011)
In brackets after ≈: the same amount, converted by molar mass. Where two headings read alike, the source gives them in different places.

Key:
Mycobacterium bovis BCG [1] = assay: microbe, parasite or virus in culture; type: cell-based; settings: for MIC: Mycobacterium tuberculosis variant bovis BCG, BCG, 144 h
M. smegmatis = settings: cited from earlier work
M. avium 101 = assay: In vitro tests on Mycobacterium avium (MIC in 7H11 agar medium); type: cell-based; settings: for MIC: Mycobacterium avium, 101, read-out: MIC on Mycobacterium avium
Description: All tests are repeated three times.

[2] = system: mc^2155 strain of M. smegmatis; assay: In vitro assays on Mycobacterium smegmatis (MIC, resazurin coloration microdilution method); type: cell-based
Procedure: All molecules to be tested are prepared in dimethylsulfoxide (DMSO) at a concentration of 50 mg/ml and frozen until use.
20 μl of each dilution for each molecule are prepared in 100 μl of the Dubos culture medium (Difco, USA), and then distributed into 96 well plates, at a concentration between 100-0.75 μg/ml.
Control wells containing DMSO alone and ethambutol (Etibi®, Myambutol®) or ofloxacine (synthesis antibiotic belonging to the fluoroquinolone family) are included at a concentration between […].
The plates are covered, sealed and incubated at 37° C. during 48 hours.
Minimal Inhibitory Concentrations (MIC) are determined using the resazurin coloration microdilution method. The powdery resazurin salt (Sigma) is prepared at a concentration of 0.01% (weight/vol) in distilled water, and the solution is then sterilized by 0.22 μm membrane filtration, and kept at 4° C. during one week.
Into the plates as incubated during 48 hours, 30 μl of a resazurin solution are added in each well. The plates are then incubated at 37° C. during 24 hours. The colour variation from blue to pink is indicative of a decrease in resazurin which corresponds to the development of the bacterial colony. The MIC is determined as being the lowest concentration to prevent a colour change. The optical density of each well is measured at 530-630 nm using a micro-plate reader, The MIC is determined by drawing the dose-optical density response curve.

M. tuberculosis H37Rv = assay: In vitro tests on Mycobacterium tuberculosis (MIC in 7H11 agar medium)
Mycobacterium bovis BCG [3] = type: in vivo, C57B1/6 female mice; settings: BCG-infected mice, 20 mg/kg/day intraperitoneally, 5 days
[4] = Mycobacterium bovis BCG, 6 days at 37° C., 7H9 medium
[5] = read-out: Minimal Inhibitory Concentration MIC (μg/mL)
[6] = read-out: Minimal Inhibitory Concentration MIC (μmol/L)

| Molecule | MIC (Mycobacterium bovis BCG [1]; [5]) [µg/mL] | MIC (Mycobacterium bovis BCG [1]; [6]) [µmol/L] | Activity against Mycobacterium bovis BCG in vitro (in words) (Mycobacterium bovis BCG [1]) | other results |
| --- | --- | --- | --- | --- |
| NNC(=O)c1ccncc1 [isoniazide, reference compound] | 0.1 | 0.73 | – | Minimal Inhibitory Concentration MIC (μg/mL) (Mycobacterium bovis BCG [1]; [4]): 0.1 µg/mL; Susceptibility of M. smegmatis (M. smegmatis; isoniazide 10 μg/mL): resistant; MIC (M. avium 101): 0.1 µg/mL (≈ 0.729 µM) |
| Nc1cc(=O)n2c3ccccc3c3ccnc1c32 | 10 | 42.5 | – | – |
| O=c1ccc2c3c(cc[n+]2CCBr)c2ccccc2n13.[Br-] [N-bromoéthyl-canthin-6-one bromide] | 1 to 5 | 3 to 15.3 | most active | – |
| O=c1ccc2nccc3c4ccccc4n1c23 [Canthin-6-one] | 7.5 | 34.1 | most active | Activity against Mycobacterium bovis BCG in vitro (in words) (Mycobacterium bovis BCG [1]; listed as Canthin-5-one): surprising efficiency; Efficiency against Mycobacterium smegmatis (in words) [2]: efficient; Efficiency against Mycobacterium tuberculosis (in words) (M. tuberculosis H37Rv): efficient; In vivo antituberculous efficiency (number of bacteria in spleen, liver and lungs; in words) (Mycobacterium bovis BCG [3]): efficient; Efficiency against Mycobacterium avium (in words) (M. avium 101): efficient |
| O=c1c2nccnc2c2nccc3c4ccccc4n1c32 [Pyrazine[e]canthin-6-one] | 10 | 36.8 | – | – |
| O=c1c2ccccc2c2c3c(cc[n+]2[O-])c2ccccc2n13 [N-oxide-benzo[e]canthin-6-one] | 10 | 34.8 | – | – |
| COc1ccc2c(c1)c1ccnc3ccc(=O)n2c31 [10-methoxy-canthin-6-one] | 7.5 | 30 | – | – |
| O=c1c2ccccc2c2nccc3c4ccccc4n1c32 [Benzo[e]canthin-6-one] | 2.5 to 5 | 9.2 to 18.4 | most active | – |
| O=c1ccc2c3c(cc[n+]2[O-])c2ccccc2n13 [N-oxide-canthin-6-one] | 2.5 to 5 | 10.6 to 21.2 | most active | – |
| CC1COc2c(N3CCN(C)CC3)c(F)cc3c(=O)c(C(=O)O)cn1c23 (stereo not shown) [ofloxacin] | – | – | – | MIC ([2]; Mycolicibacterium smegmatis, mc^2155 strain, Dubos medium, resazurin, read-out: MIC (CMI) on Mycobacterium smegmatis): 1 µg/mL (≈ 2.77 µM); MIC on Mycobacterium tuberculosis (M. tuberculosis H37Rv; H37Rv, 7H11 agar, 21-30 days at 37° C.): 1 µg/mL (≈ 2.77 µM); MIC (M. avium 101): 6.2 µg/mL (≈ 17.2 µM) |
| ethambutol [reference compound] | – | – | – | Minimal Inhibitory Concentration MIC (μg/mL) (Mycobacterium bovis BCG [1]; [4]): 5 µg/mL; Minimal Inhibitory Concentration MIC (μmol/L) (Mycobacterium bovis BCG [1]; [4]): 24.5 µmol/L; MIC (CMI) on Mycobacterium smegmatis ([2]; mc^2155 strain, Dubos medium, resazurin): 0.5 µg/mL; Susceptibility of M. smegmatis (M. smegmatis; ethambutol 5 μg/mL): reacts |
